The values below come from the NIST ThermoML archive (doi:10.1016/j.tca.2018.08.005).

The conditions of data set [1]: Crystal; DTA.
A short description of data set [2]: Molar enthalpy of transition or fusion. The conditions noted are these: Crystal; DSC.

Structures are written as SMILES. ± gives the expanded uncertainty stated by the source.

On to `O.O.O.O.O.O.O.O.O.O.O=S(=O)([O-])[O-].[Na+].[Na+]` [sodium sulfate decahydrate], for which, in data set [1], the Normal melting temperature was 35.00 ± 5 °C. For the same compound, the “Molar enthalpy of transition or fusion” value in data set [2] was 18 ± 1.84 kcal/mol.
